Article PMC9503459, “Antifungal Activity, Structural Stability, and Immunomodulatory Effects on Human Immune Cells of Defensin from the Lentil Lens culinaris” (Membranes, 2022)
“And” between values parts separate entries of the source, which are not always exact repeats. Equal values may be shown once. No end group written: not given here.

Tested on: regulatory CD4+ FoxP3+ T cells (Tregs)
Experiment: Cytokine response by multiplex xMAP, Tregs
Type: cell-based, human
Conditions: CD4+CD25+ Tregs, 2 µM, 24 h
Protocol: Colorectal adenocarcinoma Caco-2 cell line (ATCC HTB-37) was cultured in complete DMEM/F12 (1:1) medium containing 10% fetal bovine serum (FBS, Gibco) and 1X antibiotic-antimycotic solution (1XAAS, Invitrogen, Waltham, MA, USA). The acute monocytic leukemia THP-1 line (ATCC TIB-202) was cultured in complete RPMI-1640 medium, containing 10% FBS, 1XAAS, and […]. THP-1 cells were differentiated into pro-inflammatory macrophages (Mφ1) with phorbol 12-myristate 13-acetate (Sigma-Aldrich) for 24 h and subsequently polarized with lipopolysaccharide from E. coli (Sigma-Aldrich) and rhIFN-γ (Sigma-Aldrich) for another 48 h according to previously reported protocol. All cells were cultured in a humidified CO2 incubator (5% CO2, 37 °C). Primary peripheral blood mononuclear cells (PBMCs) collected from a healthy donor were purchased from American Type Culture Collection (ATCC PCS-800-011). CD4^+ T-helper and CD8^+ T cytotoxic cells were isolated from PBMCs by magnetic separation with mouse anti-human CD4-PE (clone 13B8.2, Beckman Coulter Diagnostics, Pasadena, CA, USA) and CD8-PE (clone REA734, Miltenyi Biotec, Bergisch Gladbach, Germany), Anti-PE MicroBeads (Miltenyi Biotec), and LS Separation Columns (Miltenyi Biotec). Isolated CD4^+ and CD8^+ cells were expanded separately with Dynabeads™ Human T-Expander CD3/CD28 (Gibco, Waltham, MA, USA) in RPMI-1640 supplemented with 10% FBS, 1XAAS and 100 U/mL rh-IL-2 (Gibco). Regulatory CD4^+ FoxP3^+ T cells (Tregs) were isolated from PBMCs by magnetic separation with CD4^+CD25^+ Regulatory T Cell Isolation Kit, human (Miltenyi Biotec). Primary CD14^+ blood monocytes were isolated from PBMCs by adherence according to standard technique. Monocyte-derived mature dendritic cells (moDCs) were obtained from CD14^+ blood monocytes according to the previously reported protocol. Briefly, blood monocytes were incubated in complete RPMI-1640 medium, containing 10% FBS, 1XAAS, 800 U/mL rhGM-CSF (Sci-Store, Russia, Moscow) and 500 U/mL rhIL-4 (Sci-Store) for 3 days. Fresh complete RPMI-1640 medium with rhGM-CSF and rhIL-4 was added to the culture on day 3. On day 5, fresh complete RPMI-1640 containing 100 U/mL rhTNF-α (Sigma) as well as 800 U/mL rhGM-CSF and 500 U/mL rhIL-4 was added and the culture was incubated for another 4 days until full maturation.
Caco-2 cells were seeded into the wells of a 48-well plate, coated with 0.1% bovine collagen (Sigma-Aldrich) for 24 h, 3 weeks before the experiment with complete DMEM/F12 (1:1) medium renewal every 2–3 days. Monocytes, moDCs, CD4^+ T-helper and CD8^+ T cytotoxic cells, Mφ1, and Regulatory CD4^+ FoxP3^+ T cells were seeded into the wells of 48-well plates in the complete RPMI-1640 medium supplemented with 10% Human AB serum (HABS, Capricorn Scientific, Ebsdorfergrund, Germany) and 1XAAS 24 h prior to the experiment; medium in Caco-2-containing wells was also replaced with the same medium. After 24 h, half of the medium in each well was replaced by fresh complete RPMI-1640 medium with 10% HABS, supplemented with 4 µM of Lc-def for the sample wells or fresh medium alone for the control wells. Cell cultures were kept in CO2-incubator (5% CO2, 37 °C) for another 24 h. Culture supernatants were collected 24 h later and stored at −70 °C degrees less than one month prior to the analytes assessment. […]

Lc-def: defensin from lentil Lens culinaris seeds (UniProt:B3F051), recombinant, overexpressed in Escherichia coli (KTCENLSDSFKGPCIPDGNCNKHCKEKEHLLSGRCRDDFRCWCTRNC; disulfide (positions not given here); ends not checked; also: disulfide bonds present, pairing not given here; UniProt B3F051 28-74, looked up)
EGF: 4.15 pg/mL | Eotaxin: <3.23↓ pg/ml | FGF-2: 34.19 pg/mL | FLT-3L: 0.62 pg/mL | Fractalkine: <23.19↓ pg/ml | G-CSF: 9.93 pg/mL | GM-CSF: 54.75 pg/mL | GROa: 29.97 pg/mL | IFNa2: <4.43↓ pg/ml | IFNg: 38.55 pg/mL | IL-1RA: 1.04 pg/mL | IL-1a: 19.36 pg/mL | IL-1b: <18.72↓ pg/ml | IL-2: 4.82 pg/mL | IL-3: <0.48↓ pg/ml | IL-4: <0.31↓ pg/ml | IL-5: <0.24↓ pg/ml | IL-6: 317 pg/mL and 317.05 pg/mL | IL-7: <0.33↓ pg/ml | IL-8: 1247 pg/mL | IL-9: 5.08 pg/mL | IL-10: 42.25 pg/mL | IL-12 (p40): 19.56 pg/mL | IL-12 (p70): 3.39 pg/mL | IL-13: 7.95 pg/mL | IL-15: <1.45↓ pg/ml | IL-17A: 2.6 pg/mL | IL-17E/IL-25: <20.59↓ pg/ml | IL-17F: 51.91 pg/mL | IL-18: 0.56 pg/mL | IL-22: 24.29 pg/mL | IL-27: 84.77 pg/mL | IP-10: 114.68 pg/mL | M-GSF: <23.75↓ pg/ml | MCP-1: 505 pg/mL and 505.45 pg/mL | MCP-3: 21.04 pg/mL | MDC: 968.96 pg/mL | MIG: 479.53 pg/mL | MIP-1a: 233 pg/mL and 233.56 pg/mL | MIP-1b: 313.49 pg/mL | PDGF-AA: <7.38↓ pg/ml | PDGF-AB/BB: 119.45 pg/mL | RANTES: 12.31 pg/mL | TGF-a: 1.25 pg/mL | TNFa: 97.83 pg/mL | TNFb: 2.32 pg/mL | VEGFa: <1.27↓ pg/ml | sCD40L: 66.54 pg/mL
